Reference: patent US20180303101A1, “METHOD OF IMPROVING GRASS QUALITY” (priority 2004, published 2018)

Columns and labels:
Assay type in all cases: in vivo
[1] = system: Penncross creeping bentgrass; assay: Canopy net photosynthetic rate at high temperature treatment (Example 1)
From the text: (§1) The following test methods were used to compare the effectiveness of a phthalocyanine composition according to the invention with known compositions. The following compositions were used in the experiments: Pigment Green 7 obtained from Sun Chemical Corporation as the water-dispersible product SUN T-64-1660 (containing 45 to 55 wt. % of Pigment Green 7) was used alone. A mixture of Pigment Green 7 and fosetyl-al was used as the commercially available product Chipco® Signature™ fungicide from Bayer Environmental Science, Montvale, N.J. The compound fosetyl-al was used as Chipco® Aliette® WDG fungicide available from Bayer Environmental Science, Montvale N.J.
Seeds of “Penncross” creeping bentgrass were sown in polyvinyl chloride (PVC) tubes (10 cm in diameter and 20 cm in length) filled with coarse sand. Plants were kept in a growth chamber for 90 days before treatment stated to allow root and canopy establishment. The daily temperature in the growth chamber was 20/16° C., the photosynthetic photon flux density was 400 μmol m−2 s−1, and the photoperiod was 12 hours/day. […]
Canopy net photosynthetic rate was measured as described below using a Li-6400 portable photosynthesis system (available from LiCor, Lincoln, NB).

[2] = system: Penncross creeping bentgrass; assay: Carotenoids content at high temperature treatment (Example 1); settings: plants with or without pretreatment
From the text: as §1
Seeds of “Penncross” creeping bentgrass were sown in polyvinyl chloride (PVC) tubes (10 cm in diameter and 20 cm in length) filled with coarse sand. […]
Chlorophyll and carotenoids were extracted by soaking 50 mg fresh shoots in 20 ml dimethyl sulfoxide (DMSO) in the dark for 72 hours. Absorbance of each extractant at 663 nm, 645 nm, and 470 nm was used to determine chlorophyll content using the formula of Arnon (1949) and carotenoids content using the formula of Lichtenthaler and Wellburn (1983) Canopy photochemical efficiency was estimated by measuring chlorophyll fluorescence (Fv/Fm) using plant photosynthesis efficiency analyzer (available from ADC Bioscientific Limited, Herts, England).

[3] = system: creeping bentgrass (variety Penncross) turf; assay: Bentgrass color rating after foliar spray (Example 3); settings: 6 weeks after treatment; Aliette 4 oz, Signature 4 and 8 oz, Pigment 6.8 and 13.6 g per 1000 sq. ft.; analysis of variance
Description: Fosetyl-al (in the form of Aliette brand fungicide), fosetyl-al plus Pigment Green 7 (in the form of Signature brand Aliette fungicide), and Pigment Green 7 were separately suspended in water and applied as a foliar spray to creeping bentgrass (variety Penncross) turf with a pressurized sprayer at a spray volume of 1.37 gallons of water per 1000 sq. ft. (ca. 560 l/ha).
Treatments were applied at the following rates: • Aliette 4 oz/1000 sq. ft. (ca. 1.3 mL/m2) • Signature 4 oz/1000 sq. ft. (ca. 1.3 mL/m2) • Signature 8 oz/1000 sq. ft. (ca. 2.5 mL/m2) • Pigment 6.8 g/1000 sq. ft. (0.73 kg/ha) • Pigment 13.6 g/1000 sq. ft. (1.5 kg/ha)

[4] = system: Penncross creeping bentgrass; assay: Influence of foliar applied phthalocyanine pigment on creeping bentgrass photosynthesis (Example 9)
Description: Studies carried out as a follow-up to Example 1 were conducted in 2005 to determine the influence of foliar applied phthalocyanine pigment on creeping bentgrass photosynthesis.
“Penncross” creeping bentgrass plants were grown in a growth chamber on a sand soil in PVC tubes (10 cm in diameter) maintained at 20° C. Plants were maintained at a canopy height of approximately 5 cm and a nutrient solution was applied weekly to maintain adequate fertility. Four plants were treated with Pigment Green 7 at a rate of 6.92 g/1000 sq. ft. (0.74 kg/ha) (with 0.6% Tween 20 being added to keep the pigment on the leaves for better absorption) and four plants were left untreated to serve as the controls (being sprayed with water only). Photochemical efficiency, chlorophyll content, and single leaf net photosynthesis were measured at one, three, seven, and fourteen days after application. Different light intensities of 1500, 750, 500, 250, 150, 50, and 0 μmol m−2 s−1 of photosynthetically active radiation (PAR, 400-700 nm) were generated inside the leaf chamber by an LED light source to generate a light response curve. Net photosynthesis was measured as the rate of CO2 uptake φmol m−2s−1). […] Photosynthesis was higher from the first day after application and all subsequent sampling dates. […] However at intensities of from 50 to 1500 μmol photons m−2 s−1 treated plants were more efficient in utilizing the constant amount of light produced in the leaf chamber.

Corn = assay: Glasshouse study, soil drench applications of pigment on corn growth and photosynthesis (Example 10); settings: for Chlorophyl: CM1000 meter readings; for Total height (avg, cm): soil to youngest fully expanded leaf tip; for Distance between collars (avg, cm): two top collars; for Net photosynthesis: youngest fully collared leaf
Description: A glasshouse study was conducted to determine the effect of soil drench applications of phthalocyanine pigment on corn growth and photosynthesis.
Corn was grown from seed in 6 inch (15 cm) pots in a potting soil mix. Pigment Green 7 was diluted in water in the four amounts per gallon (3.8 liter) of water indicated in the Table and applied directly to the soil. Treatments were initiated in March when corn was at the three leaf stage. Approximately 250 ml of the aqueous pigment mixture was applied to the soil on day 0 and day 6. On day 21 plants were placed in trays containing the pigment Water was maintained in the trays as needed to replenished evapotranspiration.
Net photosynthesis of the youngest fully collared leaf (i.e., leaf 7) was measured using a LiCor 6400 instrument as μmol m−2s−1 of CO2. Leaf chlorophyll measurements were made using a CM1000 leaf […] meter (Spectrum Technologies). Plant height, stem diameter, and leaf width were also measured at the end of the conclusion of the study.

[5] = 20° C., 6.92 g/1000 sq. ft. with 0.6% Tween 20, 1, 3, 7, 14 days after application

Question: With Pigment Green 7 as the substance, how does the “Net photosynthetic rate (Pn)” value ([1]; plants with pretreatment) read?
Answer: higher with application of Pigment Green 7 and Signature fungicide than with application of Aliette fungicide and water

Question: And the “Net photosynthetic rate (Pn)” value ([1]; plants without pretreatment)?
Answer: highest

Question: What about the Carotenoids content [2] of the same substance?
Answer: higher with application of Signature fungicide and Pigment Green 7 than with application of Aliette fungicide and water

Question: And the “Color rating versus untreated check” value [3]?
Answer: significantly different than the untreated check

Question: What about the Light compensation point ([4]; 6.92 g/1000 sq. ft. foliar application) of the same substance?
Answer: unaltered by treatment

Question: What about the “Photochemical efficiency (Fv/Fm), treated versus control plants” value [4, 5] of the same substance?
Answer: No differences

Question: What about the “Total chlorophyll per gram of tissue, treated versus control plants” value [4, 5] of the same substance?
Answer: no statistically significant differences

Question: And the “Single leaf net photosynthesis (rate of CO2 uptake), treated versus control plants” value ([4]; all light intensities greater than 50 μmol photons m−2 s−1, 6.92 g/1000 sq. ft., from first day and all subsequent sampling dates)?
Answer: higher for treated plants compared to controls

Question: What about the “Stability after foliar application (from higher net photosynthesis on every date)” value ([4]; on bentgrass leaves, 6.92 g/1000 sq. ft.) of the same substance?
Answer: stable for at least fourteen days after foliar application

Question: And the “Height soil to collar (avg, cm)” value (Corn; pigment concentration 1 g/gal)?
Answer: 58 cm

Question: And the “Leaf width (avg, cm)” value (Corn; pigment concentration 1 g/gal)?
Answer: 5.2 cm

Question: What about the “Stem diameter (avg, cm)” value (Corn; pigment concentration 1 g/gal) of the same substance?
Answer: 1.04 cm

Question: And the Chlorophyl (Corn; pigment concentration 1 g/gal)?
Answer: 141

Question: What about the “Total height (avg, cm)” value (Corn; pigment concentration 1 g/gal) of the same substance?
Answer: 145 cm

Question: What about the “Distance between collars (avg, cm)” value (Corn; pigment concentration 1 g/gal) of the same substance?
Answer: 4.9 cm

Question: And the Net photosynthesis (Corn; pigment concentration 1 g/gal)?
Answer: 13.0 μmol m−2s−1 of CO2

Question: And the “Height soil to collar (avg, cm)” value (Corn; pigment concentration 8 g/gal)?
Answer: 59 cm

Question: What about the “Leaf width (avg, cm)” value (Corn; pigment concentration 8 g/gal) of the same substance?
Answer: 5.6 cm

Question: What about the “Stem diameter (avg, cm)” value (Corn; pigment concentration 8 g/gal) of the same substance?
Answer: 0.99 cm

Question: And the Chlorophyl (Corn; pigment concentration 8 g/gal)?
Answer: 122

Question: And the “Total height (avg, cm)” value (Corn; pigment concentration 8 g/gal)?
Answer: 148 cm

Question: And the “Distance between collars (avg, cm)” value (Corn; pigment concentration 8 g/gal)?
Answer: 5.5 cm

Question: And the Net photosynthesis (Corn; pigment concentration 8 g/gal)?
Answer: 12.8 μmol m−2s−1 of CO2

Question: What about the “Height soil to collar (avg, cm)” value (Corn; pigment concentration 16 g/gal) of the same substance?
Answer: 55 cm

Question: What about the “Leaf width (avg, cm)” value (Corn; pigment concentration 16 g/gal) of the same substance?
Answer: 5.2 cm

Question: And the “Stem diameter (avg, cm)” value (Corn; pigment concentration 16 g/gal)?
Answer: 1.01 cm

Question: What about the Chlorophyl (Corn; pigment concentration 16 g/gal) of the same substance?
Answer: 115

Question: What about the “Total height (avg, cm)” value (Corn; pigment concentration 16 g/gal) of the same substance?
Answer: 137 cm

Question: What about the “Distance between collars (avg, cm)” value (Corn; pigment concentration 16 g/gal) of the same substance?
Answer: 5.7 cm

Question: And the Net photosynthesis (Corn; pigment concentration 16 g/gal)?
Answer: 13.6 μmol m−2s−1 of CO2

Question: What about the “Height soil to collar (avg, cm)” value (Corn; pigment concentration 32 g/gal) of the same substance?
Answer: 54 cm

Question: And the “Leaf width (avg, cm)” value (Corn; pigment concentration 32 g/gal)?
Answer: 5.6 cm

Question: What about the “Stem diameter (avg, cm)” value (Corn; pigment concentration 32 g/gal) of the same substance?
Answer: 1.00 cm

Question: And the Chlorophyl (Corn; pigment concentration 32 g/gal)?
Answer: 132

Question: What about the “Total height (avg, cm)” value (Corn; pigment concentration 32 g/gal) of the same substance?
Answer: 132 cm

Question: And the “Distance between collars (avg, cm)” value (Corn; pigment concentration 32 g/gal)?
Answer: 6.0 cm

Question: What about the Net photosynthesis (Corn; pigment concentration 32 g/gal) of the same substance?
Answer: 13.3 μmol m−2s−1 of CO2
